Laboratory results as given in ChEMBL document CHEMBL1795284, “Total synthesis of racemic and (R) and (S)-4-methoxyalkanoic acids and their antifungal activity” (2011).
Converted amounts (≈) assume the structure as drawn.

What was measured:
Assay type in all cases: functional
[1] = test system: Candida parapsilosis; test: Antifungal activity against Candida parapsilosis MTCC 1744 after 18 hrs by microtiter broth dilution method; settings: Lodderomyces parapsilosis, MTCC 1744, 18 h
[2] = test system: Candida albicans; test: Antifungal activity against Candida albicans MTCC 3017 after 18 hrs by microtiter broth dilution method; settings: MTCC 3017, 18 h
[3] = test system: Candida albicans; test: Antifungal activity against Candida albicans MTCC 227 after 18 hrs by microtiter broth dilution method; settings: MTCC 227, 18 h
[4] = test system: Aspergillus niger; test: Antifungal activity against Aspergillus niger MTCC 281 after 18 hrs by microtiter broth dilution method; settings: MTCC 281, 18 h
[5] = test system: Pichia kudriavzevii; test: Antifungal activity against Issatchenkia orientalis MTCC 3020 after 18 hrs by microtiter broth dilution method; settings: MTCC 3020, 18 h
[6] = test system: Candida albicans; test: Antifungal activity against Candida albicans MTCC 4748 after 18 hrs by microtiter broth dilution method; settings: MTCC 4748, 18 h

`CCCCCC[C@H](CCC(=O)O)OC` showed an MIC [1] of 625 µg/mL (≈ 3090 µM), an MIC [2] of 312 µg/mL (≈ 1540 µM) and an MIC [3] of 19 µg/mL (≈ 93.9 µM). For the same compound, the MIC [4] was 19 µg/mL (≈ 93.9 µM), the MIC [5] was 19 µg/mL (≈ 93.9 µM) and the MIC [6] was 19 µg/mL (≈ 93.9 µM).

Compound `CCCCCC[C@@H](CCC(=O)O)OC` has an MIC [1] of 156 µg/mL (≈ 771 µM), an MIC [2] of 156 µg/mL (≈ 771 µM) and an MIC [3] of 1250 µg/mL (≈ 6180 µM). It also gave an MIC [4] of 1240 µg/mL (≈ 6120 µM), an MIC [5] of 312 µg/mL (≈ 1540 µM) and an MIC [6] of 39 µg/mL (≈ 193 µM).

`CCCCCCC[C@H](CCC(=O)O)OC` gave an MIC [2] of 1250 µg/mL (≈ 5780 µM), an MIC [3] of 156 µg/mL (≈ 721 µM) and an MIC [4] of 168 µg/mL (≈ 777 µM). For the same compound, the MIC [5] was 312 µg/mL (≈ 1440 µM) and the MIC [6] was 78 µg/mL (≈ 361 µM).

In the case of `CCCCCCC[C@@H](CCC(=O)O)OC`, the MIC [1] is reported as 2500 µg/mL (≈ 11600 µM), the MIC [2] is reported as 1250 µg/mL (≈ 5780 µM) and the MIC [3] is reported as 78 µg/mL (≈ 361 µM). For the same compound, the MIC [4] was 82 µg/mL (≈ 379 µM), the MIC [5] was 2500 µg/mL (≈ 11600 µM) and the MIC [6] was 156 µg/mL (≈ 721 µM).

Work on `CCCCCCC(CCC(=O)O)OC` (racemic) yielded an MIC [1] of 5010 µg/mL (≈ 24800 µM), an MIC [2] of 5010 µg/mL (≈ 24800 µM) and an MIC [3] of 625 µg/mL (≈ 3090 µM). For the same compound, the MIC [4] was 631 µg/mL (≈ 3120 µM), the MIC [5] was 1250 µg/mL (≈ 6180 µM) and the MIC [6] was 156 µg/mL (≈ 771 µM).

For `CCCCCCCC(CCC(=O)O)OC` (racemic), the MIC [1] was 625 µg/mL (≈ 2890 µM), the MIC [2] was 78 µg/mL (≈ 361 µM) and the MIC [3] was 156 µg/mL (≈ 721 µM). The MIC [4] was 164 µg/mL (≈ 758 µM), the MIC [5] was 312 µg/mL (≈ 1440 µM) and the MIC [6] was 19 µg/mL (≈ 87.8 µM).

For `OC(Cn1cncn1)(Cn1cncn1)c1ccc(F)cc1F` [FLUCONAZOLE], the MIC [1] was 16 µg/mL (≈ 52.2 µM), the MIC [2] was 64 µg/mL (≈ 209 µM) and the MIC [3] was 32 µg/mL (≈ 104 µM). The MIC [4] was 34 µg/mL (≈ 111 µM), the MIC [5] was 128 µg/mL (≈ 418 µM) and the MIC [6] was 32 µg/mL (≈ 104 µM).
